Reference: US12264134B2 (Merck Sharp & Dohme LLC, priority 2018, dated 2025)

Tests used:
[1] = target: T1, IDO1 (Homo sapiens, UniProt P14902); test: IDO1 Cellular Assay in HeLa Cells Stimulated with IFNγ; format: cell-based; conditions: read-out: HeLa Cell Potency, IC50
[2] = target: T1, IDO1; test: IDO1 Human Whole blood Assay; format: cell-based; parameters: Human whole blood was drawn in sodium heparin coated tubes from healthy internal donors; from tissue; host or cells: human whole blood from healthy donors, stimulated with LPS and IFNγ; conditions: LPS and IFNγ stimulated, 18 h, read-out: Human Whole Blood Potency, IC50
Experimental: IDO1Human Whole blood Assay
Compounds to be tested were serially diluted in ten 3-fold steps in DMSO starting from 10 mM. 3 μL of compound dilutions or DMSO alone were then dispensed from the dilution plate into a polypropylene 96-well assay plate containing 97 μL of RPMI medium using an Echo 555 acoustic liquid handler (Labcyte). LPS and IFNγ was prepared in RPMI medium to a 10× of final conc. (1000 ng/mL), final concentration is 100 ng/mL.
Human whole blood was drawn in sodium heparin coated tubes from healthy internal donors. 240 μL of blood was transferred to each of the wells of a v-bottom 96 well plate. 30 μL of compound was transferred from intermediate dilution plate, and incubated for 15 min. 30 μL from stimulants was then transferred to blood and mixed thoroughly. Plate was covered with breathable membrane and incubated at 37° C. for overnight (18 h).
On day 2, isotope labeled standard solutions of kynurenine and tryptophan was made in water at 10× concentration and 30 μL was added to the blood at 3 μM final concentration. The assay plates were centrifuged at 300×G for 10 min with no brake to separate plasma from red blood cells. 60 μL of plasma samples was removed without disturbing red blood cells. Plasma was diluted with RPMI in 1:1 ratio and proteins were precipitated out with two volumes of Acetonitrile. The plates were centrifuged at 4000×G for 60 min. 20 μL of supernatant was carefully transferred to a 384 well plate containing 40 μL of 0.1% formic acid in water and analyzed by LC/MS/MS.
LC/MS/MS analyses were performed using Thermo Fisher's LX4-TSQ Quantum Ultra system. This system consists of four Agilent binary high-performance liquid chromatography (HPLC) pumps and a TSQ Quantum Ultra triple quadrupole MS/MS instrument. For each sample, 5 μL were injected onto an Atlantis T3 column (2.1 mm×150 mm, 3 μm particle size) from Waters. The mobile phase gradient pumped at 0.8 mL/min was used to elute the analytes from the column at 25° C. The elution started at 0% B increasing linearly to 25% B at 6.5 min, holding at 25% for 1 min, re-equilibrating to 10 min. Mobile phase A consisted of 0.1% formic acid in water. Mobile phase B consisted of 0.1% of formic acid in acetonitrile. Data were acquired in positive mode using a HESI interface. The operational parameters for the TSQ Quantum Ultra instrument were a spray voltage of 4000 V, capillary temperature of 380° C., vaporizer temperature 400° C., shealth gas 60 arbitrary units, Aux gas 20 arbitrary units, tube lens 85 and collision gas 1.2 mTorr. SRM chromatograms of kynurenine (Q1: 209.2>Q3:94.0) and internal standard (Q1: 215.3>Q3:98.2) were collected for 90 sec. The peak area was integrated by Xcalibur Quan software. The ratios between the kynurenine generated in the reaction and 2D6-Kynurenine spiked-in internal standard were used to generate percentage inhibition and IC50 values. Compounds were titrated and IC50's were calculated by 4 parameter sigmoidal curve fitting formula.

T1 sequence (P14902 whole entry): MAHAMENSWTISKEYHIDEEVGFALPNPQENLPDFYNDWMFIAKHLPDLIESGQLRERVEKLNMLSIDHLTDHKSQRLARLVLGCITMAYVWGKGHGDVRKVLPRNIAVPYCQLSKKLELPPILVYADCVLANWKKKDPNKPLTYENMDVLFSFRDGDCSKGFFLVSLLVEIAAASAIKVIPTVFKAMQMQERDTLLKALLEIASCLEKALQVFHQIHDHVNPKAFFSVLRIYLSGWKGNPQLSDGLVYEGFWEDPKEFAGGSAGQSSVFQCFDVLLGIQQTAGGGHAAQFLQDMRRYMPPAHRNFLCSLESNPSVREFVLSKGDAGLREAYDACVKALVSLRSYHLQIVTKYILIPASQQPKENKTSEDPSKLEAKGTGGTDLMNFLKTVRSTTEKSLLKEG

| SMILES | IC50 [1] | IC50 [2] |
| --- | --- | --- |
| Cc1cccc(N2CCN(C(=O)Cn3nc(C(=O)N4CCC(O)C(F)C4)c4c3CCC4)C3(CC3)C2)c1C (single isomer, unassigned) [Example 396, 1-(7-(2,3-dimethylphenyl)-4,7-diazaspiro[2.5]octan-4-yl)-2-(3-(3-fluoro-4-hydroxypiperidine-1-carbonyl)-5,6-dihydrocyclopenta[c]pyrazol-1(4H)-yl)ethanone] | 4.08 nM | 625 nM |
| Cc1cccc(N2CCN(C(=O)Cn3nc(C(=O)N4CC[C@@H](O)[C@@H](F)C4)c4c3CC(F)C4)CC2)c1C (single isomer, unassigned) [Example 419] | 10.8 nM | 1150 nM |
| Cc1c(F)ccc(N2CCN(C(=O)Cn3nc(C(=O)N4CCC(O)C(CO)C4)c4c3C[C@@H]3C[C@H]43)C3(CC3)C2)c1C (stereo in doubt) [Example 324, 1-[7-(4-fluoro-2,3-dimethylphenyl)-4,7-diazaspiro[2.5]octan-4-yl]-2-{(3bS,4aS)-3-[4-hydroxy-3-(hydroxymethyl)piperidine-1-carbonyl]-3b,4,4a,5-tetrahydro-1H-cyclopropa[3,4]cyclopenta[1,2-c]pyrazol-1-yl}ethan-1-one] | 0.64 nM | 555 nM |
| Cc1cccc(N2CCN(C(=O)Cn3nc(C(=O)N4CCCC4)c4c3CCCC4)CC2)c1C [Example 2, 1-[4-(2,3-dimethylphenyl)piperazin-4-ium-1-yl]-2-[3-(pyrrolidine-1-carbonyl)-4,5,6,7-tetrahydroindazol-1-yl]ethanone] | 4.88 nM | 555 nM |
| Cc1cccc(N2CCN(C(=O)Cn3nc(C(=O)N4CCCC4)c4c3CCCCC4)CC2)c1C [Example 5, 1-[4-(2,3-dimethylphenyl)piperazin-4-ium-1-yl]-2-[3-(pyrrolidine-1-carbonyl)-5,6,7,8-tetrahydro-4H-cyclohepta[c]pyrazol-1-yl]ethanone] | 6.83 nM | 414 nM |
| Cc1c(F)ccc(N2CCN(C(=O)Cn3nc(C(=O)N4C[C@@H](C)O[C@@H](C)C4)c4c3CCC4)CC2)c1C [Example 48, 2-{3-[(2R,6S)-2,6-dimethylmorpholine-4-carbonyl]-5,6-dihydrocyclopenta[c]pyrazol-1(4H)-yl}-1-[4-(4-fluoro-2,3-dimethylphenyl)piperazin-1-yl]ethan-1-one] | 2.93 nM | 492 nM |
| Cc1c(Cl)cccc1N1CCN(C(=O)Cn2nc(C(=O)N3C[C@@H](C)O[C@@H](C)C3)c3c2CCC3)CC1 [Example 68, 1-[4-(3-chloro-2-methylphenyl)piperazin-1-yl]-2-{3-[(2R,6S)-2,6-dimethylmorpholine-4-carbonyl]-5,6-dihydrocyclopenta[c]pyrazol-1(4H)-yl}ethan-1-one] | 3.6 nM | 1010 nM |

More lines, in order of falling IC50 [1], values ahead:

| IC50 [1] | IC50 [2] | SMILES |
| --- | --- | --- |
| 31.7 nM | 2470 nM | Cc1cccc(N2CCN(C(=O)Cn3nc(C(=O)N4CC[C@@H](O)[C@@H](F)C4)c4c3CC(F)C4)CC2)c1C (single isomer, unassigned) [Example 418] |
| 8.75 nM | 1820 nM | Cc1cccc(N2CCN(C(=O)Cn3nc(C(=O)N4CCCC4)c4c3CCC4)CC2)c1C [Example 1, 1-(4-(2,3-dimethylphenyl)piperazin-1-yl)-2-(3-(pyrrolidine-1-carbonyl)-5,6-dihydrocyclopenta[c]pyrazol-1(4H)-yl)ethanone] |
| 5.63 nM | 3490 nM | Cc1cccc(N2CCN(C(=O)Cn3nc(C(=O)N4CC[C@H](CO)C4)c4c3CCC4)CC2)c1C [Example 83, 1-[4-(2,3-dimethylphenyl)piperazin-1-yl]-2-{3-[(3S)-3-(hydroxymethyl)pyrrolidine-1-carbonyl]-5,6-dihydrocyclopenta[c]pyrazol-1(4H)-yl}ethan-1-one] |
| 4.27 nM | 2300 nM | Cc1cccc(N2CCN(C(=O)Cn3nc(C(=O)N4CCC(O)CC4)c4c3CCC4)CC2)c1C [Example 87, 1-[4-(2,3-dimethylphenyl)piperazin-1-yl]-2-[3-(4-hydroxypiperidine-1-carbonyl)-5,6-dihydrocyclopenta[c]pyrazol-1(4H)-yl]ethan-1-one] |
